From patent US20220016080A1, “COMPOUNDS THAT SELECTIVELY AND EFFECTIVELY INHIBIT HAKAI-MEDIATED UBIQUITINATION, AS ANTI-CANCER DRUGS” (FUNDACIÓN PROFESOR NOVOA SANTOS, priority 2018, published 2022) come the findings set out here.

Assay [1] has as its system LoVo cells. The assay is described as follows: Invasion assay, LoVo. The format is cell-based. As to conditions: treated 48 h before seeding. The protocol: (§1) For invasion assays, cells were treated with Hakin-1 or DMSO as vehicle for 48 h using 1% FBS during the last 24 hours. 3×10^5 MDCK, MDCK-Hakai or LoVo cells were seeded in a cell invasion chamber (Cell invasion assaykit, Chemicon International) containing medium with 2% FBS. After 72 hours for MDCK and MDCK-Hakai Invasive and 16 h for LoVo cells, invasive cells invaded that reach the lower chamber containing 30% FBS were fixed and stained with crystal violet (Sigma Aldrich, St Louis, Mo.) following the manufacturer's specifications. For migration assays, HT29 cells were cultured with Hakin-1 or DMSO as vehicle for 48 h, using medium without serum the last 24 h. In the cell migration chamber were seeded 3×10^5 HT29 cells (Cell migration kit, Millipore, Bedford, Mass.) containing medium without serum. After 16 h, migrated cells in the lower chamber containing serum with 30% FBS were stained with crystal violet and counted following the manufacturer's specifications. For both invasion and migration assays cells were counted in five fields photographed with an Olympus microscope using a 20× objective, experiments were performed in triplicates for each condition and the assays were repeated at least three times. Results are expressed as mean±SD.

Assay [2] relates to HT-29 cells. The assay is described as follows: Soft agar-colony formation assay, HT29. It counts as cell-based. As to conditions: 28 days. Here is the method:
(§2) Soft agar-colony formation assay was performed on 12-well plates in triplicates at a density of 5×10^3 MDCK and MDCK-Hakai cells/well, or 12×10^3 HT29 cells/well. Cells were seeded in medium with 0.5% low-melting agarose over a layer with 0.75% low-melting agarose (Lonza Rockland, Me., USA). Cells were treated with the indicated inhibitors and DMSO was used as vehicle. Treatment was refreshed every 3 days and, after 21 days for MDCK and MDCK-Hakai cells or 28 days for HT29 cells, number of colonies were quantified. Quantification of five randomly-selected fields of each condition was photographed with a Nikon Eclipse-TI microscope (objective 4×). Experiments were conducted with three triplicates and were repeated three times. Data are represented as mean±SD.

Assay [3] concerns normal epithelial MDCK cell line. Put plainly: MTT cell viability assay, MDCK. It counts as cell-based. To be noted: normal epithelial MDCK compared to Hakai-MDCK; 72 h. Here is the method: For cytotoxicity assays, 1×10^4 cells were seeded per well into a 96-well plate. After 24 h cells were treated with the indicated inhibitors for 72 h and a MTT colorimetric cell viability assay was performed following manufacturer's instructions (Sigma Aldrich, St Louis, Mo.). Absorbance was measured at 570 and 630 nm using a Multiskan Plus Reader (Nanoquant Infinite M200 Tecan Trading AG, Switzerland). Dose-response curves were designed with Graph Pad Prism Software and the half-maximal inhibitory concentration (IC50) values were calculated. Represented data are the mean±SEM of at least three independent experiments with six replicates per condition.

The test system of assay [4] is HT-29 cells. The assay is described as follows: Western blotting of EMT markers, HT-29. The format is cell-based. As to conditions: 48 h. The protocol: (§3) For western blot analysis, cells were treated with the indicated inhibitors for 48 h and the whole cell extracts were obtained as described previously. Twenty micrograms of lysates were resolved on a 10% polyacrilamide SDS-PAGE followed by western blot analysis performed as previously described. For immunofluorescence assays cells were grown for 24 h on glass coverslips and treated with the indicated inhibitors for 48 h. Cells were fixed with 4% PFA for 15 min, permeabilized with 0.5% […] and incubated with E-cadherin antibody for 2 h. Coverslips were incubated with fluorescein-tagged secondary antibody (Dakopatts, Sweden) for […]. Finally coverslips were mounted with ProLong Gold antifade reagent (LifeTech, UK) and images were taken in epifluorescence microscope (Olympus) using 40× objective.
Background: A western blot detects proteins with antibodies after separation by electrophoresis.

Assay [5] has as its system Hakai-MDCK cells. Put plainly: E-cadherin protein levels, Hakai-MDCK. It counts as cell-based. As to conditions: mesenchymal Hakai-MDCK cells, no basal E-cadherin. The protocol: as §3
Assay [6] relates to HT29 cells. The assay is described as follows: BrdU proliferation assay, HT29. It counts as cell-based. To be noted: 48 h. The protocol: (§4) For BrdU assays, 1×10^4 of indicated cells were plated per well into a 96-well plate. After 24 h, cells were treated with the indicated inhibitors for 48 h. Three independent experiments were plated with six replicates per each condition. Cells were treated with […] BrdU for 2 h. BrdU incorporation into newly synthesized DNA was measured using a cell proliferation colorimetric immunoassay kit according to the manufacturer's instructions (Roche, Switzerland). Results are expressed as mean±S.D. Results are represented as percentage of positive cells (mean±S.D) of three independent experiments.

The subject of assay [7] is Hakai-MDCK cells. The assay is described as follows: Invasion assay, Hakai-MDCK. The format is cell-based. To be noted: treated 48 h before seeding. Here is the method:
as §1

Assay [8] relates to bladder cancer 5637 cells. The assay is described as follows: BrdU proliferation assay, 5637. It counts as cell-based, human. As to conditions: 48 h. The protocol: as §4
In assay [9] the test system is Hakai-MDCK cells. The assay is described as follows: Soft agar-colony formation assay, Hakai-MDCK. The format is cell-based. As to conditions: 21 days. The protocol: as §2
Assay [10] deals with liver cancer HepG2 cells. The assay is described as follows: BrdU proliferation assay, HepG2. It counts as cell-based, human. To be noted: 48 h. The protocol:
as §4

For assay [11], the system named is HT-29 cells. The assay is described as follows: Immunofluorescence of E-cadherin, HT-29. It counts as cell-based. As to conditions: 48 h. The protocol: as §3
Assay [12] concerns prostate cancer PC-3 cells. The assay is described as follows: BrdU proliferation assay, PC-3. It counts as cell-based, human. As to conditions: 48 h. Here is the method:
as §4

Consider `O=C(O)c1ccc(-n2nnnc2SCC(=O)c2ccc([N+](=O)[O-])cc2)cc1` [Hakin-1, 4-(5-{[2-(4-nitrophenyl)-2-oxoethyl]thiol}-1H-tetrazol-1-yl)benzoic acid], for which the cell invasion result is on record as “strongly reduced cell invasion” in [1] and “decreased cell invasion” in [7]. In addition, the “colony formation (soft agar)” value in [2] and in assay [9] was “robust inhibition of colony formation” in each case. The “sensitivity to treatment (cell viability, MTT)” value in assay [3] is “more resistant”. For the same compound, in assay [4], the “Cortactin expression levels (western blotting)” value was “increase expression levels”. In addition, the “E-cadherin levels (western blotting)” value in assay [4] was “increase E-cadherin levels”. Moreover, the “mesenchymal Vimentin marker (western blotting)” value in assay [4] was “reduced”. The E-cadherin protein levels result in [5] was “no recovery was detected”. Besides, the “cell proliferation (BrdU)” value was “reduced cell proliferation” in assay [6], “inhibits cell proliferation” in [8], “inhibits cell proliferation” in [10] and “inhibits cell proliferation” in assay [12]. For the same compound, in [11], the “E-cadherin levels at cell-cell contacts (immunofluorescence)” value is on record as “significant increase E-cadherin levels at cell-cell contacts”.
